Results published in patent US7476655B2, “Materials and methods for regulating blood flow” (University of Florida Research Foundation, Inc., priority 2005, dated 2009).

Assays:
hypoxic mice lungs = test: vasodilator response in excised hypoxic mouse lungs; set-up: species or system C57BL/6J mice; settings: 15 μM, with or without L-NAME 100 μM (FIG. 4)
Protocol: Specific pathogen-free female C57BL/6J mice (30-35 g body weight) were anesthetized with pentobarbital (60 mg/kg, ip), and the lungs were excised from the thorax, ventilated with air (control) or with 0% oxygen for 1 hour at 60 breaths/min with a SAR-830 series small animal ventilator at a tidal volume of 0.6-0.8 ml/100 g body weight. After development of hypoxic vasoconstriction, vasodilator response was monitored by addition of 15 μM each of P3, P4, P6 or zaprinast with or without the presence of nitric oxide synthase inhibitor (L-NAME, 100 μM). The vasodilatory response was continuously monitored as previously described (Hu et al. (2004) Am. J. Physiol. Lung Cell Mol. Physiol. 286:[…]-[…]).

cGMP-specific PDE = cGMP-specific PDE activity in PAEC (hydrolysis of 3H-cGMP in supernatant); type: cell-based; settings: 10 μM, 1 hr at 37° C., compared to control (FIG. 3)
Protocol: The synthetic peptides were evaluated to asses any association with modulation of cGMP-specific PDE activity in PAEC.
Cell monolayers were incubated in RPMI 1640 medium with or without (control) the presence of 10 μM each of P3, P4, P6 or Zaprinast for 1 hr at 37° C. After incubation, cells were washed, homogenized, and supernatant were collected by centrifugation at 15,000×g for 15 min at 4° C. PDE activity in the supernatant were measured by monitoring hydrolysis of 3H-cGMP as previously described (16).

eNOS = test: catalytic activity of eNOS in cultured pulmonary artery endothelial cells ([3H]-citrulline formation from [3H]-L-arginine); type: cell-based; settings: PAEC monolayers, varying concentrations, 37° C., 1 hr, compared to control (FIG. 2)
Protocol: The effects of the synthetic peptides (P3, P4, and P6) of the subject invention on the catalytic activity of eNOS were examined using a cultured pulmonary artery endothelial cell (PAEC) model.
PAEC monolayers were incubated in RPMI 1640 medium with or without (control) the presence of varying concentrations of P3, P4, or P6 at 37° C. for 1 hr. After incubation, the catalytic activity of eNOS was determined as previously described by monitoring formation of [3H]-citrulline from [3H]-L-arginine (Chen, S., J. M. Patel and E. R. Block ER (2000) “Angiotensin IV-mediated pulmonary artery vasorelaxation is due to endothelial intracellular calcium release” Am. J. Physiol. Lung Cell Mol. Physiol. 279:L849-L856; and Patel, J. M., Y. D. Li, J. L. Zhang et al. (1999) “Increased expression of calreticulin is linked to Ang-IV-mediated activation of lung endothelial NOS” Am. J. Physiol Lung Cell Mol. Physiol. 277:L794-L801).

hypoxic lungs [1] = test: in situ lung perfusion, pulmonary arterial pressure, rat model of hypoxic pulmonary hypertension; type: in vivo, Sprague Dawley rats; settings: for pulmonary arterial pressure (PAP): infusion of 20 μM (FIG. 6)
Protocol: (§1) Specific pathogen-free Sprague Dawley rats (200-250 g body weight) were anesthetized with pentobarbital (60 mg/kg, ip). After confirmation of deep anesthesia, the trachea was cannulated with an 18-G blunt-tipped catheter and ventilated (SAR-830/p small animal ventilator, CWE, Ardmoore, Pa.) at a tidal volume of 2.5 ml/min with warm humidified 21% O2/5% CO2/74% N2 at 60 breaths/min with peak inspiratory and expiratory pressures of 9 cm and 3 cm H2O, respectively. A thoracotomy was performed and 100 units heparin injected into the right ventricle (RV). PE-90 polyethylene tubing connected to a Cook Double Lumen Central Venous Catheter (Cook Critical Care, Bloomington, Ind.) was placed in the left atrium through the left vetricle and tied in place. After placement of another PE-90 polyethylene tube connected with a double lumen catheter in the main pulmonary artery (PA), the lung were ventilated with 21% O2/5% CO2/74% N2 (normoxic) at constant end-expiratory pressure of 20 cm H2O and perfused in situ in the open chest with RPMI 1640 without pH indicator containing 4% Ficoll at a constant flow of 2 ml/min. After 30 min, the ventilation mixture was changed to 2% O2/5% CO2/93% N2 (hypoxic) for 30 min and change in PA pressure was continuously recorded using PO-NE-MAH-P3P Lung Perfusion System software (Gould Instrument System) and the perfusate samples were collected to determine level of NO release as previously reported (Hu et al. Am. J. Physiol. Lung Cell Mol. Physiol. 286: L1066-L1074, 2004). The ventilation gas (hypoxic) was return to normoxic gas, and the lungs were perfused with P3 (20 and 40 μM) in RPMI 1640 or RMPI 1640 for 10 min, after which the hypoxic challenge with 2% O2 was repeated, and the PA pressure response was recorded.

NO release = NO release in perfusates of in situ perfused rat lungs; type: in vivo, Sprague Dawley rats
Protocol: as §1, with “After placement of another PE-90 polyethylene tube connected with a double lumen catheter in the main pulmonary artery (PA), the lung were ventilated with 21% O2/5% CO2/74% N2 (normoxic) at constant end-expiratory pressure of 20 cm H2O and perfused in situ in the open chest with RPMI 1640 without pH indicator containing 4% Ficoll at a constant flow of 2 ml/min.” left out

hypoxic lungs [2] = test: in vivo vasodilation effect in rats exposed to hypoxia (10% inspired O2) for 2 to 6 weeks; set-up: species or system Sprague Dawley rats; settings: 10 mg/kg or 20 mg/kg ip once every day
Protocol: Specific pathogen-free Sprague Dawley rats (200-250 g body weight) were exposed to hypoxia (10% inspired O2) in a Coy Laboratory hypoxia chamber equipped with auto purge, airlock, and automated live animal filtration and dehumidification systems for 2 to 6 weeks. Control (normoxia) animals were maintained in similar humidity and temperature environment. Hypoxia exposure was 24 hr/day, except when the chamber was open twice a week for 10-15 min each to clean cages and replenish food and water. All rats were exposed to 12:12-hr light/dark cycle and allowed free access to standard rat food and water. Some rats were administered P3 (+P3) in saline (10 mg/kg or 20 mg/kg, ip) or saline alone (−P3) once every day starting 24 hr prior to initiation of exposure to hypoxia. After 2, 3, and 6 weeks exposure animals were use to measure various parameters including changes in pulmonary artery pressure, lung weight/body weight (LW/BW) ratio, and right vertical/heart weight (RV/HW) ratio.

| Compound | vasorelaxation of hypoxic mice lungs (hypoxic mice lungs) | cGMP-specific catalytic activity of PDE (cGMP-specific PDE) | catalytic activity of eNOS (eNOS) | magnitude of reduction of PAP in hypoxic lung versus normoxic lungs (hypoxic lungs [1]; hypoxic compared with normoxic lungs) | pulmonary arterial pressure (PAP) (hypoxic lungs [1]; hypoxic lungs) | attenuation of PAP at 40 μM relative to 20 μM (hypoxic lungs [1]; normoxic and hypoxic lungs, 40 μM) | pulmonary arterial pressure (PAP) (hypoxic lungs [1]; normoxic lungs) | NO release in perfusates (NO release; hypoxic lungs (FIG. 7)) | NO release in perfusates (NO release; normoxic lungs (FIG. 7)) | hypoxia-induced PAP pressure (hypoxic lungs [2]; hypoxia (FIG. 11)) | hypoxia-induced RV/HW ratio (hypoxic lungs [2]; hypoxia (FIG. 12)) |
| --- | --- | --- | --- | --- | --- | --- | --- | --- | --- | --- | --- |
| CCCOc1ccccc1-c1nc2nn[nH]c2c(=O)[nH]1 [Zaprinast, reference compound] | vasorelaxtion | loss PDE activity |  |  |  |  |  |  |  |  |  |
| KKRFNSISCSSWRRKRKKR (Peptide (P4) used according to the subject invention.) |  | significantly reduced | significantly enhanced in a dose-dependent manner |  |  |  |  |  |  |  |  |
| KRFNSISCSSWRRKR (Peptide (P3) used according to the subject invention.) |  | significantly reduced | significantly enhanced in a dose-dependent manner | much greater | significantly attenuated | comparable | significantly attenuated | increases | increases | attenuated | attenuated |
| WRRKRKES (Peptide (P6) used according to the subject invention.) |  | significantly reduced | significantly enhanced in a dose-dependent manner |  |  |  |  |  |  |  |  |
